Measured values from US20250122181A1, “BENZIMIDAZOLES AS MODULATORS OF IL-17” (Janssen Pharmaceutica NV, priority 2021, published 2025).

What was measured:
[1] = test system: IL-17A-induced G-CSF production in human normal keratinocyte (NHK); assay: NHK Assay: IL-17A-induced G-CSF production in human normal keratinocyte; type: cell-based; settings: 24 h, IL-17A 5 ng/mL, simple average if tested more than once
Procedure, shortened: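 Stimulus rhIL-17A 5 ng/mL final, premixed 1 h rt with compound; adult NHK, 5% FBS, 0.2% DMSO. Viability by CellTiter-Glo vs DMSO.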

[2] = molecular target: T1, IL-17A(FLAG-Tagged): IL-17RA(His-Tagged) (Homo sapiens, UniProt Q16552, K93Q); assay: IL-17A(FLAG-Tagged): IL-17RA(His-Tagged) Binding Disruption Eu-HTRF Assay, Protocol 2; settings: Protocol 2, FLAG tagged IL-17A 1 nM; simple average if tested more than once
Description: An antibody directed against the FLAG tag of IL-17A (SEQ ID NO: 1) is labeled with the HTRF donor chromophore (Europium-cryptate). IL-17A is present as a dimer that is “locked into” this quaternary structure due to the formation of loop-spanning […] disulfide bridges. The construct of IL-17RA used in the assay excludes the […] portion of the receptor and is fused to a C-terminal 10×His tag (SEQ ID NO:2). An antibody directed against the His tag of the IL-17RA chimera is labeled with the HTRF acceptor chromophore (“D2”). The fluorescence-resonance energy transfer (FRET) depends on the vicinity of the donor chromophore to the acceptor, and interruption of the binding between the IL-17A and IL-17RA causes the reduction/loss of FRET. Therefore, this assay allows to evaluate the compound effect on the binding IL-17A and IL-17RA by monitoring the fluorescence intensity of donor vs acceptor. The assay was run using either Protocol 1 or Protocol 2 as described below.
Protocol 2. 40 nl of 2-fold serial diluted compound solution for total 22 dilution points is added into each well of a 1536-well, white, low-volume, non-binding plate (Greiner #782904), then 2 μl of FLAG tagged IL-17A at 2× final concentration (1 nM) in solution of PBS+0.01% Triton-X100 is added to each well. The assay plate is briefly centrifuged then incubated for 1 h at rt. A mixed solution is prepared containing 2×5 nM 10HIS×IL-17RA, 2×2.5 nM Eu-anti-FLAG (CISBIO), 2×5 nM D2-anti-HIS (CISBIO) in PBS+0.01% Triton-X100+200 mM Potassium Fluoride (Sigma 60238) and 2 μl of mix is added to each well of the assay plate. The plate is briefly centrifuged then incubated for 2 h at rt. The HTRF intensities at the wavelength of donor (615 nm) and acceptor (665 nm) are measured using BMG Pherastar. The ratio between intensities at two wavelengths is calculated and plotted against the compound concentration and the data is fitted to a one-site competition model to yield IC50 of the compound.

[3] = molecular target: T1, IL-17A(FLAG-Tagged): IL-17RA(His-Tagged); assay: IL-17A(FLAG-Tagged): IL-17RA(His-Tagged) Binding Disruption Eu-HTRF Assay, Protocol 1; settings: Protocol 1, FLAG tagged IL-17A 2.5 nM; simple average if tested more than once
Procedure, shortened: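 IC50 came from a one-site competition fit of the acceptor/donor (665/620 nm) HTRF ratio. His-tagged IL-17RA, Eu-anti-FLAG and D2-anti-His were added after a 1 h rt compound preincubation with FLAG-tagged IL-17A dimer in PBS/0.01% Triton X-100, followed by 2 h at rt before reading.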

T1 sequence (Q16552 with tags, fused parts or gaps K93Q): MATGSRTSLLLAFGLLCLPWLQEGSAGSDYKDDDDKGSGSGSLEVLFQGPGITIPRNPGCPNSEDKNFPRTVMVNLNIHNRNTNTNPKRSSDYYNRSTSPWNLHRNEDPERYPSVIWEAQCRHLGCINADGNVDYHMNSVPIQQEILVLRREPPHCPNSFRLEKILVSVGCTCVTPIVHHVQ

IC50 [2] [µM] | IC50 [3] [µM] | SMILES | IC50 ([1]; Homo sapiens, Keratinocyte) [µM] | IC50 [1] [µM]
< 0.05 | – | C[C@@H](OC1CC1)[C@H](NC(=O)c1nonc1C1CC1)c1nc2cc([C@@H](COC3CC3)N3CC(F)(F)CNC3=O)ccc2[nH]1 [Example 71, N-((1R,2R)-2-Cyclopropoxy-1-(5-((S)-2-cyclopropoxy-1-(5,5-difluoro-2-oxotetrahydropyrimidin-1(2H)-yl)ethyl)-1H-benzo[d]imidazol-2-yl)propyl)-4-cyclopropyl-1,2,5-oxadiazole-3-carboxamide] | < 0.05 | –
< 0.05 | < 0.05 | CC(C)n1ncc(F)c1C(=O)N[C@@H](COC(C)(C)C(F)(F)F)c1nc2cc(CN3CC(C(F)(F)F)NC3=O)ccc2[nH]1 (single isomer, unassigned) [Example 32, 4-Fluoro-1-isopropyl-N—((R)-1-(5-(((S*)-2-oxo-4-(trifluoromethyl)imidazolidin-1-yl)methyl)-1H-benzo[d]imidazol-2-yl)-2-((1,1,1-trifluoro-2-methylpropan-2-yl)oxy)ethyl)-1H-pyrazole-5-carboxamide] | 0.05 to 0.1 | –
< 0.05 | – | COC[C@H](c1ccc2[nH]c(C(NC(=O)c3nonc3C)[C@@H](C)OC(C)(C)C(F)(F)F)nc2c1)N1C[C@@H](C(F)(F)F)NC1=O (single isomer, unassigned) [Example 74, N-[(1R*,2R)-1-[5-[(1S)-2-Methoxy-1-[(4S)-2-oxo-4-(trifluoromethyl)imidazolidin-1-yl]ethyl]-1H-benzimidazol-2-yl]-2-(2,2,2-trifluoro-1,1-dimethyl-ethoxy)propyl]-4-methyl-1,2,5-oxadiazole-3-carboxamide] | < 0.05 | –
< 0.05 | – | COC[C@H](c1ccc2nc(C(NC(=O)c3nonc3C3CC3)[C@@H](C)O[C@H](C)C(F)(F)F)[nH]c2c1F)N1C[C@@H](C(F)(F)F)NC1=O (single isomer, unassigned) [Example 95, 4-Cyclopropyl-N-((1R*,2R)-1-(7-fluoro-6-((S)-2-methoxy-1-((S)-2-oxo-4-(trifluoromethyl)imidazolidin-1-yl)ethyl)-1H-benzo[d]imidazol-2-yl)-2-(((R)-1,1,1-trifluoropropan-2-yl)oxy)propyl)-1,2,5-oxadiazole-3-carboxamide] | – | < 0.05
> 0.1 | > 0.1 | CC(C)n1nccc1C(=O)NC(c1nc2nc([C@@H](C3CC3)N3CC(F)(F)CNC3=O)ccc2[nH]1)[C@@H](C)O[C@H](C)C(F)(F)F (single isomer, unassigned) [Example 75, N-((1R*,2R)-1-(5-((R)-Cyclopropyl(5,5-difluoro-2-oxotetrahydropyrimidin-1(2H)-yl)methyl)-1H-imidazo[4,5-b]pyridin-2-yl)-2-(((R)-1,1,1-trifluoropropan-2-yl)oxy)propyl)-1-isopropyl-1H-pyrazole-5-carboxamide] | < 0.05 | –
< 0.05 | < 0.05 | [2H]C1([2H])[C@H](C(F)(F)F)NC(=O)N1[C@H](COC)c1ccc2[nH]c([C@H](COC(C)(C)C(F)(F)F)NC(=O)c3nonc3C)nc2c1 (relative stereo) [Example 54, N—((R*)-1-(5-((S)-2-methoxy-1-((R*)-2-oxo-4-(trifluoromethyl)imidazolidin-1-yl-5,5-d2)ethyl)-1H-benzo[d]imidazol-2-yl)-2-((1,1,1-trifluoro-2-methylpropan-2-yl)oxy)ethyl)-4-methyl-1,2,5-oxadiazole-3-carboxamide] | < 0.05 | –
< 0.05 | – | COC[C@H](c1ccc2nc(C(NC(=O)c3nonc3C)[C@@H](C)O[C@H](C)C(F)(F)F)[nH]c2c1F)N1C[C@@H](C(F)(F)F)NC1=O (single isomer, unassigned) [Example 97, N-((1R*,2R)-1-(7-Fluoro-6-((S)-2-methoxy-1-((S)-2-oxo-4-(trifluoromethyl)imidazolidin-1-yl)ethyl)-1H-benzo[d]imidazol-2-yl)-2-(((R)-1,1,1-trifluoropropan-2-yl)oxy)propyl)-4-methyl-1,2,5-oxadiazole-3-carboxamide] | – | < 0.05
< 0.05 | – | C[C@@H](OC1CC1)[C@H](NC(=O)c1nonc1C1CC1)c1nc2cc([C@@H](COC3CC3)N3C[C@@H](C(F)(F)F)NC3=O)ccc2[nH]1 [Example 69, N-((1R,2R)-2-Cyclopropoxy-1-(5-((S)-2-cyclopropoxy-1-((S)-2-oxo-4-(trifluoromethyl)imidazolidin-1-yl)ethyl)-1H-benzo[d]imidazol-2-yl)propyl)-4-cyclopropyl-1,2,5-oxadiazole-3-carboxamide] | < 0.05 | –
< 0.05 | – | Cc1nonc1C(=O)N[C@H](c1nc2cc([C@@H](COC3CC3)N3CC(F)(F)CNC3=O)ccc2[nH]1)[C@@H](C)OC1CC1 [Example 73, N-((1R,2R)-2-Cyclopropoxy-1-(5-((S)-2-cyclopropoxy-1-(5,5-difluoro-2-oxotetrahydropyrimidin-1(2H)-yl)ethyl)-1H-benzo[d]imidazol-2-yl)propyl)-4-methyl-1,2,5-oxadiazole-3-carboxamide] | < 0.05 | –
< 0.05 | – | COC[C@H](c1ccc2nc(C(NC(=O)c3nonc3C3CC3)[C@@H](C)O[C@H](C)C(F)(F)F)[nH]c2c1F)N1C[C@@H](C(F)(F)F)NC1=O (single isomer, unassigned) [Example 94, 4-Cyclopropyl-N-((1S*,2R)-1-(7-fluoro-6-((S)-2-methoxy-1-((S)-2-oxo-4-(trifluoromethyl)imidazolidin-1-yl)ethyl)-1H-benzo[d]imidazol-2-yl)-2-(((R)-1,1,1-trifluoropropan-2-yl)oxy)propyl)-1,2,5-oxadiazole-3-carboxamide] | < 0.05 | –
< 0.05 | – | Cc1nonc1C(=O)N[C@H](c1nc2cc([C@@H](COC3CC3)N3C[C@@H](C(F)(F)F)NC3=O)ccc2[nH]1)[C@@H](C)OC1CC1 [Example 70, N-((1R,2R)-2-Cyclopropoxy-1-(5-((S)-2-cyclopropoxy-1-((S)-2-oxo-4-(trifluoromethyl)imidazolidin-1-yl)ethyl)-1H-benzo[d]imidazol-2-yl)propyl)-4-methyl-1,2,5-oxadiazole-3-carboxamide] | < 0.05 | –
< 0.05 | – | CC(C)n1ncc(F)c1C(=O)N[C@H](c1nc2cc([C@@H](COC3CC3)N3CC(F)(F)CNC3=O)ccc2[nH]1)[C@@H](C)OC1CC1 [Example 72, N-((1R,2R)-2-Cyclopropoxy-1-(5-((S)-2-cyclopropoxy-1-(5,5-difluoro-2-oxotetrahydropyrimidin-1(2H)-yl)ethyl)-1H-benzo[d]imidazol-2-yl)propyl)-4-fluoro-1-isopropyl-1H-pyrazole-5-carboxamide] | 0.05 to 0.1 | –
0.05 to 0.1 | – | COC[C@H](c1ccc2nc(C(NC(=O)c3nonc3C)[C@@H](C)O[C@H](C)C(F)(F)F)[nH]c2c1F)N1C[C@@H](C(F)(F)F)NC1=O (single isomer, unassigned) [Example 96, N-((1S*,2R)-1-(7-Fluoro-6-((S)-2-methoxy-1-((S)-2-oxo-4-(trifluoromethyl)imidazolidin-1-yl)ethyl)-1H-benzo[d]imidazol-2-yl)-2-(((R)-1,1,1-trifluoropropan-2-yl)oxy)propyl)-4-methyl-1,2,5-oxadiazole-3-carboxamide] | < 0.05 | –
